In PMC5897531, “Identification of an Alarm Pheromone-Binding Chemosensory Protein From the Invasive Sycamore Lace Bug Corythucha ciliata (Say)” (Frontiers in Physiology, 2018):
pKd: −log10 of the molar value. Where two headings read alike, the source gives them in different places. Marks after values point to notes of the source that are not given here. Values belong to the molecule of their own block, whether it stands above or below them.

How the values were obtained:
[1] = molecular target: CcilCSP2 (Corythucha ciliata, UniProt A0A2S0M1B9); assay: Fluorescence competitive binding assay with 1-NPN
Procedure: Briefly, the sequence of CcilCSP2 encoding the mature CSP protein was expressed in Escherichia coli BL21 (DE3) competent cells (Transgen). Cells were grown at 37°C until OD600 ≈ 0.60, when expression was induced with 1 mM IPTG. After incubating an additional 8 h at 28°C, cells were harvested by centrifugation. The purification of CcilCSP2 was performed using HisTrap affinity columns (GE Healthcare Biosciences, Uppsala, Sweden).

[2] = molecular target: T1, c18915_g1 (Corythucha ciliata, UniProt A0A2S0M1C0); assay: direct fluorescence titration; type: binding; conditions: fluorescent probe; conditions presumably as for CcilCSP2
T1 construct: gene CSP8; full length 133 aa
T1 sequence (A0A2S0M1C0 22-133): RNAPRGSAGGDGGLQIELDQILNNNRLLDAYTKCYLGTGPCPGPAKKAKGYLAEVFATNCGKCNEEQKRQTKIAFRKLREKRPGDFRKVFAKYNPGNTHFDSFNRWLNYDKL

[3] = system: sycamore lace bug adults; assay: Y-shaped olfactometer, behavioral response of adults; type: in vivo, Corythucha ciliata; conditions: Y-tube; for χ2, choice of adults: P > 0.05; for behavioral response of adults: 1 and 0.1 μg/μl
Procedure: Compounds that potentially bind with high affinity to CSPs were purchased from Sigma (St Louis, MO, USA) to test their effects on sycamore lace bug behavior. The behavioral response of sycamore lace bug adults (1:1 sex ratio) was assessed using a Y-shaped olfactometer. The length of the arms and the diameter of the tube were 10 and 5 cm, respectively. The authentic standards were dissolved in hexane at concentrations of 1 and 0.1 μg/μl. Then 10 μl of solution was applied to a 1 cm^2 filter paper. The filter paper was placed in one arm of the Y-shaped olfactometer, and 10 μl hexane was placed in the other arm as a control. The amount of airflow was set at 250 ml/min. In each experiment, a single sycamore lace bug adult was released at the base of the olfactometer stem and observed for 10 min. During this time, insects not making any choice were recorded as having “no response”. Insects entering more than halfway into the olfactometer arm and staying for at least 10 s were recorded as having a “response”. After 10 insects were tested, the orientation of the Y-shaped olfactometer was reversed to avoid environmental effects, and the inner wall was cleaned with degreased cotton containing acetone, washed with ethanol, and then washed with distilled water and dried in an oven. The experiment was conducted in a behavioral observation chamber at 26°C. The experiment was repeated seven times, and each time the behavior of 10 insects was tested. The choice of insects between chemicals and hexane was compared using chi-square analysis.

[4] = system: sycamore lace bug nymphs; assay: Petri dish test, behavioral response of nymphs; type: in vivo, Corythucha ciliata; conditions: Geraniol vs. Phenyl benzoate
[5] = system: sycamore lace bug nymphs; assay: Petri dish test, behavioral response of nymphs; type: in vivo, Corythucha ciliata; conditions: for Chi-square value, choice of nymphs: compound vs. hexane, 20 μl on filter paper, 5 min; for behavioral response of nymphs: petri dish
Procedure: One test was conducted in a petri dish (15 cm diameter) at 22–26°C. Two filter papers (3 cm diameter) were placed symmetrically on both sides of the petri dish. 20 μl of the compound to be tested (1, 0.1 or 0.01 μg/μl) was added to one filter paper. 20 μl hexane was added as a control to the other filter paper. The filter papers were placed at a distance of 5 cm from the start position at the center of the petri dish where 40 sycamore lace bug nymphs were released. The number of nymphs on each filter paper was recorded after 5 min. Each assay was replicated four times with a new petri dish for each replicate. The choice between hexane and a blank was also tested. […] The numbers of insect on each filter paper were compared using chi-square analysis.

[6] = system: sycamore lace bug nymphs; assay: Plant leaf test, repellency rate of nymphs; type: in vivo, Corythucha ciliata; conditions: for behavioral response of nymphs: plant leaves
Procedure: To further confirm the behavioral effects of each active substance, the behavioral response of sycamore lace bug nymphs was tested by directly applying the compounds to a P. × acerifolia leaf. […] Photographs were then taken at 0, 2, and 4 min to assess the repellency rate, which was calculated using the following formula: Repellency rate = M/T^*100, where T = the total number of sycamore lace bug nymphs in the tested colony at 0 min, and M = the number of sycamore lace bug nymphs that had moved at 2 or 4 min. Experimental conditions were the same as for the petri dish experiments. Hexane was used as the mock treatment. The repellency rates of the nymphs in each treatment were compared using a Kruskal Wallis H-test followed by Mann-Whitney U-tests.

CcilCSP2, sequence (A0A2S0M1B9 entry or part of it): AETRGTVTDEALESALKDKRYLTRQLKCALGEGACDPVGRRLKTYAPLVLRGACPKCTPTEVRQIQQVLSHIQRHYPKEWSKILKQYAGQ

SMILES: c1ccc(Nc2cccc3ccccc23)cc1 [1-NPN, N-Phenyl-1-naphthylamine]
pKd [1]: 5.68

SMILES: c1ccc(Nc2cccc3ccccc23)cc1 [1-NPN]
Kd [2]: Affinity of c18915_g1 for 1-NPN

pKd [1]: 4.82
Displacement of 1-NPN ([1]; competitive binding): more than 50%
SMILES: CC(C)=CCC/C(C)=C/CO [Geraniol, E-3,7-dimethyl-2,6-octadien-1-ol, reference compound]
χ2, choice of adults ([3]; 0.1 μg/μl vs. hexane): 1.52
χ2, choice of adults ([3]; 1 μg/μl vs. hexane): 0.069
behavioral response of adults [3]: not significantly affected
Chi-square value, choice of nymphs ([4]; 0.01 μg/μl): 0.214
Chi-square value, choice of nymphs ([4]; 0.1 μg/μl): 0.267
Chi-square value, choice of nymphs ([4]; 1 μg/μl): 0.083
Chi-square value, choice of nymphs ([5]; 0.01 μg/μl): 5.444^a^*
Chi-square value, choice of nymphs ([5]; 0.1 μg/μl): 10.965^**
Chi-square value, choice of nymphs ([5]; 1 μg/μl): 13.928^**
behavioral response of nymphs [5]: significantly repelled
repellency rate ([6]; 2 min, 0.01 μg/μl): 25%^*
repellency rate ([6]; 2 min, 0.1 μg/μl): 50%^*
repellency rate ([6]; 2 min, 1 μg/μl): 72.41%^*
repellency rate ([6]; 4 min, 0.01 μg/μl): 25%^*
repellency rate ([6]; 4 min, 0.1 μg/μl): 57.14%^*
repellency rate ([6]; 4 min, 1 μg/μl): 79.41%^*
behavioral response of nymphs [6]: significantly repelled

SMILES: c1ccc2ccccc2c1 [Naphthalene]
Chi-square value, choice of nymphs ([5]; 0.01 μg/μl): 0.243
Chi-square value, choice of nymphs ([5]; 0.1 μg/μl): 1.190
Chi-square value, choice of nymphs ([5]; 1 μg/μl): 0.333

Displacement of 1-NPN ([1]; competitive binding): more than 50%
pKd ([1]; competitive binding, 1-NPN as fluorescent reporter, calculated from IC50, read-out: KD): 4.86
SMILES: O=C(Oc1ccccc1)c1ccccc1 [Phenyl benzoate]
χ2, choice of adults ([3]; 0.1 μg/μl vs. hexane): 0.083
χ2, choice of adults ([3]; 1 μg/μl vs. hexane): 0.176
behavioral response of adults [3]: not significant
Chi-square value, choice of nymphs ([5]; 0.01 μg/μl): 0.615
Chi-square value, choice of nymphs ([5]; 0.1 μg/μl): 14.629^**
Chi-square value, choice of nymphs ([5]; 1 μg/μl): 5.818^*
behavioral response of nymphs [5]: significantly repelled
repellency rate ([6]; 2 min, 0.01 μg/μl): 12%
repellency rate ([6]; 2 min, 0.1 μg/μl): 50%^*
repellency rate ([6]; 2 min, 1 μg/μl): 63.16%^*
repellency rate ([6]; 4 min, 0.01 μg/μl): 13%
repellency rate ([6]; 4 min, 0.1 μg/μl): 57.14%^*
repellency rate ([6]; 4 min, 1 μg/μl): 73.68%^*
behavioral response of nymphs [6]: repellent effect of phenyl benzoate was further confirmed

SMILES: Cc1ccc(C(C)C)c(O)c1 [Thymol]
Chi-square value, choice of nymphs ([5]; 0.01 μg/μl): 0.400
Chi-square value, choice of nymphs ([5]; 0.1 μg/μl): 0.111
Chi-square value, choice of nymphs ([5]; 1 μg/μl): 0.125

SMILES: Cc1ccc(C(C)C)cc1 [p-Cymene]
Chi-square value, choice of nymphs ([5]; 0.01 μg/μl): 0.083
Chi-square value, choice of nymphs ([5]; 0.1 μg/μl): 0.026
Chi-square value, choice of nymphs ([5]; 1 μg/μl): 0.048
